The text below walks through data of US20050074827A1, “Methods for identifying modulators of quorum-sensing signaling in bacteria” (priority 2003, published 2005).

The subject of assay [1] is LasR-controlled promoter PrsaL (yfp reporter) in MW1.pUM15. Description: Titration of yfp expression in MW1.pUM15 against autoinducer concentration. The assay is classed as cell-based, Pseudomonas aeruginosa. From the text:
Strain Construction. We tested whether the P. aeruginosa quorum-sensing-controlled promoter for the rsaL gene (PrsaL) can be used in high-throughput screening to identify modulators of quorum-sensing signaling. We constructed a plasmid (designated pUM15) with yfp under control of the P. aeruginosa LasR-controlled promoter PrsaL and introduced the plasmid into P. aeruginosa wild-type strain PAO1 (designated PAO1.pUM15). In PAO1.pUM15, the expression of yfp is dependent on the endogenously synthesized autoinducer, 3-oxo-C12-HSL. Thus, fluorescence will be altered if a test compound modulates any aspect of signaling, including, e.g., signal synthesis, stability, reception, or expression of LasR-dependent genes. Accordingly, we designated this assay the “Complete Signaling Assay” or CSA. […]
Measurement of Reporter Gene Product. We measured fluorescence with an excitation filter at 485 nm and an emission filter at 535 nm in a Tecan SPECTRAFluor Plus plate reader. […]
Expression Depends on Autoinducer. […] We detected very little fluorescence in MW1.pUM15 culture grown in the absence of signal molecule (FIG. 1).
The Assay Mimics Naturally Occurring Quorum-Sensing Signaling. […] We observed that fluorescence in MW1.pUM15 is half-maximal at 200±100 nM 3-oxo-C12-HSL (FIG. 2). […] We also confirmed that expression of yfp is quorum-sensing dependent by graphing fluorescence per cell against cell density (FIG. 3). […]

The conditions of assay [2]: cell-based binding assay, Passador et al., J. Bacteriol. 178: 5995-6000 (1996); read-out: half-maximal saturation; cited from earlier work.

As to `CCCCCCCCCC(=O)CC(=O)NC1CCOC1=O` (stereo not drawn) [3-oxo-C12-HSL], in assay [1] (MW1.pUM15, yfp fluorescence, FIG. 2, read-out: 3-oxo-C12-HSL concentration at which fluorescence in MW1.pUM15 is half-maximal), the EC50 worked out at 200 ± 100 nM. For the same molecule, the “effect on yfp expression in MW1.pUM15” value in assay [1] (addition of autoinducer, 0.9 mM per FIG. 1 legend) is “restored expression of yfp”. Further, in assay [2], the Kd is 200 nM.
